Columns and labels:
Assay in all cases: relative viability (nuclei count vs DMSO), 5 days (fraction); higher = more cells survive
Kobe2602 + Linsitinib = compound: C1=CC(=CC=C1NC(=S)NNC2=C(C=C(C=C2[N+](=O)[O-])C(F)(F)F)[N+](=O)[O-])F [Kobe2602] + C[C@]1(O)C[C@@H](c2nc(-c3ccc4ccc(-c5ccccc5)nc4c3)c3c(N)nccn32)C1 [Linsitinib] (partner 1 µM)
Summary of the method: (§1)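 Each reported value is a median over duplicate plates. It expresses relative viability: treated-well nuclei count divided by vehicle-well nuclei count. Lung cancer cell lines in 1536-well plates were dosed by pin tool a day after seeding, alone with one drug or with a fixed anchor-drug dose plus five library-drug doses (not always all listed) in √10 steps, and nuclei were counted after 5 days.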

Cabozantinib + OSI-027 = compound: COc1cc2nccc(Oc3ccc(NC(=O)C4(C(=O)Nc5ccc(F)cc5)CC4)cc3)c2cc1OC [Cabozantinib] + COc1cccc2cc(-c3nc([C@H]4CC[C@H](C(=O)O)CC4)n4ncnc(N)c34)[nH]c12 [OSI-027] (partner 0.5 µM)
Summary of the method: as §1

[1] = compound: COc1cc2nccc(Oc3ccc(NC(=O)C4(C(=O)Nc5ccc(F)cc5)CC4)cc3)c2cc1OC [Cabozantinib] + CC1(C)CCC(c2ccc(Cl)cc2)=C(CN2CCN(c3ccc(C(=O)NS(=O)(=O)c4ccc(N[C@H](CCN5CCOCC5)CSc5ccccc5)c(S(=O)(=O)C(F)(F)F)c4)cc3)CC2)C1 [Navitoclax] (partner 0.5 µM)
Summary of the method: as §1

[2] = compound: COc1cc2nccc(Oc3ccc(NC(=O)C4(C(=O)Nc5ccc(F)cc5)CC4)cc3)c2cc1OC [Cabozantinib] + C[C@@H](Oc1cc(-c2cnn(C3CCNCC3)c2)cnc1N)c1c(Cl)ccc(F)c1Cl [Crizotinib] (partner 1 µM)
Summary of the method: as §1

With UMC-11 the relative viability (Kobe2602 + Linsitinib; first compound 0.2 µM) was 1, the relative viability (Kobe2602 + Linsitinib; first compound 0.6325 µM) was 1.06 and the relative viability (Kobe2602 + Linsitinib; first compound 2 µM) was 0.997. It also gave a relative viability (Kobe2602 + Linsitinib; first compound 6.325 µM) of 0.996, a relative viability (Kobe2602 + Linsitinib; first compound 20 µM) of 0.947 and a relative viability (Cabozantinib + OSI-027; first compound 0.02 µM) of 0.45. For the same cell line, the relative viability (Cabozantinib + OSI-027; first compound 0.06325 µM) was 0.49, the relative viability (Cabozantinib + OSI-027; first compound 0.2 µM) was 0.518 and the relative viability (Cabozantinib + OSI-027; first compound 0.6325 µM) was 0.547. The relative viability (Cabozantinib + OSI-027; first compound 2 µM) was 0.432, the relative viability ([1]; first compound 0.02 µM) was 0.298 and the relative viability ([1]; first compound 0.06325 µM) was 0.332. It also gave a relative viability ([1]; first compound 0.2 µM) of 0.34, a relative viability ([1]; first compound 0.6325 µM) of 0.329 and a relative viability ([1]; first compound 2 µM) of 0.297. For the same cell line, the relative viability ([2]; first compound 0.02 µM) was 0.609, the relative viability ([2]; first compound 0.06325 µM) was 0.592 and the relative viability ([2]; first compound 0.2 µM) was 0.717. The relative viability ([2]; first compound 0.6325 µM) was 0.668 and the relative viability ([2]; first compound 2 µM) was 0.578.
